Like-named read-outs stand apart in the source and are kept apart here.
Key:
AACS = molecular target: T1, AACS (Homo sapiens, UniProt Q86V21); assay: Acyl-CoA synthetases selectivity panel: AACS; format: biochemical; settings: human recombinant protein, substrate acetoacetyl, AMP readout by HPLC; read-out: HPLC based activity assays IC50 (UM) AACS
T1 construct: purchased Cusabio, China
T1 sequence (Q86V21 1-672): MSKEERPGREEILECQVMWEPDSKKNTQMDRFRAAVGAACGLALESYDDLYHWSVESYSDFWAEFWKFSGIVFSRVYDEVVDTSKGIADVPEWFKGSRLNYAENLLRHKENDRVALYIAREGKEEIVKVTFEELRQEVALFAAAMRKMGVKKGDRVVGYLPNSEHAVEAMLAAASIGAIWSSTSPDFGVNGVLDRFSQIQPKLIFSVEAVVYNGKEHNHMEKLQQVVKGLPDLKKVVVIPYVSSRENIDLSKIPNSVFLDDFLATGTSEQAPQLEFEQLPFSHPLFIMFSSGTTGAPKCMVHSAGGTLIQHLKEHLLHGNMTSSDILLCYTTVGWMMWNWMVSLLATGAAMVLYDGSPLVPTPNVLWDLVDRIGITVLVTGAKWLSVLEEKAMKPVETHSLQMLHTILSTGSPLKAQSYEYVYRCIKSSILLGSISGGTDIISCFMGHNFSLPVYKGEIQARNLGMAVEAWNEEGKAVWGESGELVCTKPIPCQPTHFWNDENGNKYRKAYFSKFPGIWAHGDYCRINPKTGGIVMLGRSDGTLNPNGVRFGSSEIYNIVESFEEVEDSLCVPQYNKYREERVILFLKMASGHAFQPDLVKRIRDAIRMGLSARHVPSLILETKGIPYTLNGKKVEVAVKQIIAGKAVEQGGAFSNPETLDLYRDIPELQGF
From the text: The biochemical assays for testing the selectivity of the compounds according to this invention, were done using human recombinant proteins (Cusabio, China). The readout of the assays was AMP levels, the […] of the reactions, by HPLC method. The acyl substrates (Sigma-Aldrich) of the assays were as followed: ACSS1/ACSS2—Acetate, AACS-Acetoacetyl, ACSF2—Octanoate and ACSL5—Palmitate. The protein in this panel include ACSS1, the closest homolog of ACSS2, in addition to representative short/medium/long chain acyl-CoA syntatases.

ACSS2 = ACSS2 (Homo sapiens, UniProt Q9NR19); assay: Binding to recombinant ACSS2 protein by Label Free MST; settings: for Kd: read-out: Kd [uM] Fluorescence
ACSS2, sequence (Q9NR19 whole entry): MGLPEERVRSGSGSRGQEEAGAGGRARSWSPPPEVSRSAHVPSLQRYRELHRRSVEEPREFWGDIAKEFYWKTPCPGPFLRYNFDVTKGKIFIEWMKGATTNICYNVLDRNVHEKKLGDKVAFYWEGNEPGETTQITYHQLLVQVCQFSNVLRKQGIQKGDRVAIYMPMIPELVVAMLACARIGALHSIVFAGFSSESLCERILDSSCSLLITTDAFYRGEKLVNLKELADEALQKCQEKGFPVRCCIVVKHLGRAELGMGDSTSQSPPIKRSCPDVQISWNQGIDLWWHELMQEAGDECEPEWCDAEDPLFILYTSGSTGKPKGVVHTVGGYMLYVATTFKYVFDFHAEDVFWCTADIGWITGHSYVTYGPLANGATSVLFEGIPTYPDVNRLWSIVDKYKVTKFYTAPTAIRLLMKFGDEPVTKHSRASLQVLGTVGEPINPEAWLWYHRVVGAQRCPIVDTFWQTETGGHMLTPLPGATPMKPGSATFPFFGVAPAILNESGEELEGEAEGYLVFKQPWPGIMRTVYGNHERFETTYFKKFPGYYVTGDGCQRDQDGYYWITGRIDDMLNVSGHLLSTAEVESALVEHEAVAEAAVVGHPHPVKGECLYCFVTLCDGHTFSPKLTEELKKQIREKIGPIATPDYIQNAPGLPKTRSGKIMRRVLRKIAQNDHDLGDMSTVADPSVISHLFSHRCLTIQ
From the text: Binding of ACSS2 inhibitor to recombinant ACSS2 protein by Label Free MST. MicroScale Thermophoresis (MST) is an optical fluorescent method that records the changes in fluorescence of a target molecule as a function of temperature and the concentration of the cognate ligand molecule. The binding of small-molecules to the target proteins lead to changes in the fluorescence that can be measured and translated into binding Kd.

`COC(=O)c1cccc(N2N=C(C)C(C(=O)Nc3cccc(C(C)(F)F)c3)C2=O)c1` (stereo not drawn) [compound 261, methyl 3-(4-((3-(1,1-difluoroethyl)phenyl)carbamoyl)-3-methyl-5-oxo-4,5-dihydro-1H-pyrazol-1-yl)benzoate] showed an IC50 (AACS) of 24 µM, a Kd (ACSS2; Buffer A (no ATP, no CoA)) of 0.46 ± 0.21 µM and a Kd (ACSS2; Buffer B (+ATP), 0.3 mM ATP) of 0.03 ± 0.01 µM. The Kd (ACSS2; Buffer C (+ATP, +CoA), 0.3 mM ATP, 0.01 mM CoA) was 0.04 ± 0.02 µM, the Kd (ACSS2; Buffer D (+CoA), 0.01 mM CoA) was 0.61 ± 0.17 µM and the “reduction of binding Kd when ATP was added to the buffer” value (ACSS2; Label Free MST) was 10 fold.

— patent US20250186433A1, “ACSS2 INHIBITORS AND METHODS OF USE THEREOF” (EpiVario, Inc., priority 2017, published 2025)
